From US12331040B2 (Karyopharm Therapeutics Inc., priority 2013, dated 2025)
Read-outs that look alike come from different tables or passages of the source.

Legend:
M24 cells = assay: MTT cell proliferation assay; assay type: cell-based; details: Homo sapiens
Method: (§1) The MTT cell proliferation assay was used to study the cytotoxic properties of the compounds. The assay was performed according to the method described by Roche Molecular Biochemicals, with minor modifications. The assay is based on the cleavage of the tetrazolium salt, MTT, in the presence of an electron-coupling reagent. The water-insoluble formazan salt produced must be solubilized in an additional step. Cells grown in a 96-well tissue culture plate were incubated with the MTT solution for approximately 4 hours. After this incubation period, a water-insoluble formazan dye formed. After solubilization, the formazan dye was quantitated using a scanning multi-well spectrophotometer (ELISA reader). […] The cells were seeded at 5,000-10,000 cells in each well of 96-well plate in 100 μL of fresh culture medium and were allowed to attach overnight. The stock solutions of the compounds were diluted in 100 μL cell culture medium to obtain eight concentrations of each test compound, ranging from 1 nM to 30 μM. […] All optical densities were measured at 490 nm using a Vmax Kinetic Microplate Reader (Molecular Devices). In most cases, the assay was performed in duplicate and the results were presented as a mean percent inhibition to the negative control±SE. The following formula was used to calculate the percent of inhibition: Inhibition (%)=(1−(ODo/OD))×100.
(§2) The M24 cell line is derived from human melanoma cells. The U2OS cell line is a human osteosarcoma cell line expressing wild type p53 and Rb, but lacking p16. The MM1S cell line is a multiple myeloma cell line; the parent cell line, MM.1, was established from peripheral blood of a multiple myeloma patient who had become resistant to steroid-based therapy. The RPMI8226 cell line is derived from human B lymphocyte cells. NHDF cells are normal human dermal fibroblast cells. The MRC-5 cell line is derived from normal lung tissue of a fetus. The PC3 cell line is a human prostate cancer cell line. The DU-145 cell line is a human prostate cancer cell line. The MDA-MB-231 cell line is a human breast adenocarcinoma cell line. The MDA-MB-468 cell line is a human breast carcinoma cell line. HL-60 cells are human promyelocytic leukemia cells. Hep G2 cells are human hepatocellular carcinoma cells. HEP 3B cells are human hepatocellular carcinoma cells. The DLD-1 cell line is a colorectal adenocarcinoma cell line. The HCT-15 cell line is a human colon carcinoma cell line. The Colo-205 cell line is derived from a human adenocarcinoma of the colon. The LoVo cell line is a human colon adenocarcinoma cell line.

MRC-5 cells = assay: MTT cell proliferation assay; assay type: cell-based; details: Homo sapiens, MRC5; MRC-5 cell line
Method: as §1, §2

MDA-MB-468 xenografts = assay: MDA-MB-468 (triple negative breast cancer) xenograft in CB-17 SCID mice; assay type: in vivo, mouse; details: for mean tumor volume of MDA-MB-468 xenografts: CB-17 SCID mice, 15 mg/kg PO once daily Monday through Friday; for toxicity (side effects, weight loss): MDA-MB-468 xenograft model, minimal or no side effects or weight loss up to 200 mg/kg daily dose
Method: The oncological impact of Compound 504 and Compound 510 were tested using a MDA-MB-468 (triple negative breast cancer) xenograft model in CB-17 SCID mice. MDA-MB-468 (ATCC #HTB-102) breast adenocarcinoma cells were obtained from ATCC. The cells were grown in high glucose DMEM supplemented with 10% fetal bovine serum, 1% penicillin and streptomycin, and 2 mM L-glutamine. Cells were sub-cultured by dilution at a ratio of 1:4. MDA-MB-468 cells were harvested by trypsinization and counted using a hemocytometer. Cells were resuspended in PBS at a 4×10^8 cells per mL. Cells were placed on ice and mixed with an equal volume of Matrigel (BD Biosciences CB-40234). Thirty-two (32) CB-17 SCID mice were inoculated sub-cutaneously in the left flank with 4×10^7 MDA-MB-468 cells. Treatment was initiated when the tumors reached a mean volume of about 100 mm^3. Mice were allocated to four (4) groups of eight (8) mice such that mean tumor volume was about 100 mm^3 in each group. Mice were treated with vehicle, standard of care/positive control drug (paclitaxel), Compound 504 or Compound 510. Compound 504 (15 mg/kg) and Compound 510 (15 mg/kg) were given orally (PO) once daily on Monday through Friday each week. Animals' weights and condition were recorded daily, and tumors were measured on Mondays, Wednesdays, and Fridays.

[1] = tested on: PAK4 signalling in IMR-90 cells; assay: Western blots of PAK4 signalling in normal cells (IMR-90); assay type: cell-based; details: IMR-90 normal cell line; 72-hour treatment, increasing concentrations; Western blot
Method: Normal human dermal fibroblasts (NHDF) and normal lung cells (IMR-90) were treated with Compound 585 for 72 hours, at which time the cells were lysed in RIPA buffer. The lysates were run on SDS-PAGE and Western blots of phospho-PAK4, PAK4, phospho-cofilin, cofilin, phospho-β-catenin, β-catenin, PARP and caspase-3 were performed.

Z-138 xenografts = assay: Z-138 mantle cell lymphoma xenograft in SCID mice; assay type: in vivo; parameters: toxicity (side effects, weight loss): dose or concentration left out as unconfirmed
Method: The impact of Compound 585 on tumor growth was tested using a Z-138 mantle cell lymphoma cancer xenograft model in SCID mice. Z-138 (ATCC #CRL-3001) mantle cell lymphoma cells were obtained from ATCC. These cells were grown in IMEM medium supplemented with 10% horse serum, 1% penicillin and streptomycin, and 2 mM L-glutamine. Cells were sub-cultured by dilution at a ratio of 1:5 to 1:10. Z-138 cells were harvested by centrifugation and counted using a hemocytometer. Cells were resuspended in PBS at a 2×10^8 cells per mL. Cells were placed on ice and mixed with an equal volume of Matrigel (BD Biosciences CB-40234). This mixture was kept on ice and injected into the left flank of mice in a volume of 0.2 mL, equivalent to 2×10^7 cells per mouse. Forty (40) CB-17 SCID mice were inoculated subcutaneously in the left flank with 2×10^7 Z-138 cells. Treatment was initiated when the tumors reached a mean volume of 125.2 mm^3. Mice were allocated to five (5) groups of eight (8) mice such that mean tumor volume in each group was within the range of 106.5 to 138.8 mm^3. Mice were treated with vehicle, standard of care/positive control drug (cyclophosphamide), or Compound 585. […] Animal weights and conditions were recorded daily, and tumors were measured on Mondays, Wednesdays and Fridays.

cancer cell lines = assay: 72-hour MTT cell proliferation assay, summary over the cancer cell lines tested; assay type: cell-based
Method: as §1
Compounds 504, 510, 525 and 585 were further tested against selected solid and hematological cancer cell lines and selected normal cell lines in a 72-hour MTT cell proliferation assay.

[2] = M24 cell line, read-out: MTT Assay IC50, M24
[3] = M24 cells, 72-hour MTT, read-out: M24 MTT IC50

Compound | IC50 (M24 cells; [2]) [nM] | IC50 (M24 cells; [3]) [nM] | IC50 (MRC-5 cells) [nM] | mean tumor volume of MDA-MB-468 xenografts (MDA-MB-468 xenografts) | toxicity (side effects, weight loss) (MDA-MB-468 xenografts) | effect on PAK4 signalling (phospho-PAK4, PAK4, phospho-cofilin, cofilin, phospho-β-catenin, β-catenin, PARP, caspase 3) [1] | mean tumor volume of Z-138 xenografts (Z-138 xenografts; SCID mice, 10, 30, or 60 mg/kg PO daily) | toxicity (side effects, weight loss) (Z-138 xenografts; Z-138 xenograft model, minimal or no side effects or weight loss up to daily dose) | share of the hematological cancer cell lines tested with an IC50 of less than 500 nM (cancer cell lines; 30/33 hematological cancer cell lines) [%] | share of the solid cancer cell lines tested with an IC50 of less than 500 nM (cancer cell lines; 42/93 solid cancer cell lines) [%] | share of the cancer cell lines tested with an IC50 of less than 1 μM (cancer cell lines; 91/126 cancer cell lines) [%]
Nc1ccc(/C=C/C(=O)NCc2cc3cc(-c4ccc(C(=O)N5CCOCC5)cc4)cc(C(F)(F)F)c3o2)cn1 [Compound 510, (E)-3-(6-aminopyridin-3-yl)-N-((5-(4-(morpholine-4-carbonyl)phenyl)-7-(trifluoromethyl)benzofuran-2-yl)methyl)acrylamide] | 100 to 5000 | 290 | < 100 | tumor growth inhibition | without major toxicity | – | – | – | – | – | –
Nc1ccc(/C=C/C(=O)NCc2cc3cc(-c4ccc(C(=O)N5CCC(F)(F)CC5)cn4)cc(C(F)(F)F)c3o2)cn1 [Compound 585, (E)-3-(6-aminopyridin-3-yl)-N-((5-(5-(4,4-difluoropiperidine-1-carbonyl)pyridin-2-yl)-7-(trifluoromethyl)benzofuran-2-yl)methyl)acrylamide] | – | – | – | – | – | little to no effect | tumor growth inhibition and even tumor regression | without major toxicity | 91 | 45 | 72
Nc1ccc(/C=C/C(=O)NCc2cc3cc(-c4ccc(S(=O)(=O)N5CCOCC5)cc4)cc(Cl)c3o2)cn1 [Compound 504, (E)-3-(6-Aminopyridin-3-yl)-N-((7-chloro-5-(4-(morpholinosulfonyl)phenyl)benzofuran-2-yl)methyl)acrylamide] | 100 to 5000 | 50 | < 100 | tumor growth inhibition | without major toxicity | – | – | – | – | – | –
